Assay results taken from patent US20250052765A1, “Nanobody Discovery Platform and Related Methods” (Carnegie Mellon University, priority 2021, published 2025).

Key:
[1] = test system: LaG18/GFP strain; settings: 300 nM TD during cell culture; bleached for 90 sec at 525 nm
Method: Flow cytometer histograms of LaG18/GFP strain labeled during cell culture with 300 nM TD. Mean values are shown; unbleached (red), bleached for 90 sec at 525 nm (blue), and unlabeled control cells (orange).

[2] = test system: NB/TPD complexes
Method: Green numbers are NB-gFAP signal; red numbers are TPD-rFAP signals. In vivo, cells treated with 300 nM TD during 3-day cell culture; in vitro, cells treated with TD after harvest in assay buffer for 4 hours.
The green emitting fluorogen activating protein (gFAP) is genetically fused using GG assembly 3′ to each NB (NB-gFAP) where the gFAP may be ScFvl or AM2-2; the red emitting FAP (rFAP) is fused 3′ to each TPD (TPD-rFAP) where the rFAP is dL5. […] If co-expressed NB and TPD specifically bind one another, the TPD-rFAP will be captured on the surface of the co-expressing cell. However, its residence will be finite as determined by the binding affinity of the NB/TPD complex; most of the TPD-rFAP will be lost into the medium over the 3 day period of cell culture. […] This enables quantitative self-reporting of the presence of the NB/TPD complex as a ratio of red to green fluorescence. FACS will then be used to isolate cells displaying the complex.
The secreted ectodomain TPD-rFAP fusions are initially sequestered within the yeast periplasmic space and/or inner cell wall, and upon buffer treatment released to outer cell surface over the course of a few hours (FIG. 22). […] A second feature of TDs is that they can be successfully applied to cells post-harvest instead of the usual inclusion of TDs in growth medium for 3 days.

sulfonate TO1-PEG3500-MG
loss of rFAP/MG (TPD) signal after bleaching TO1 end of TD [1]: about half of the rFAP/MG signal is lost
binding affinities of NB/TPD complexes efficiently locked/captured on the yeast cell surface [2]: ≤ 20 µM
